# Measurements as given in patent US9630991B2, “βsheet tapes ribbons in tissue engineering” (University of Leeds, priority 2002, dated 2017).
# Entries after “also recorded” stand apart in the source; their conditions may differ. Counter-ions that a name gives are not always drawn. Where a SMILES comes first, the peptide text is derived from it. Where no end group is shown, it is not given here. [ ]: non-standard residue; d: D form. Orn = NCCC[C@H](N)C(=O)O
# Columns and labels:
# [1] = Net charge of peptide at pH 7.5 in physiological solution; type: physicochemical; conditions: per peptide, pH 7.5, physiological solution
# L929 fibroblast cells = experiment: Cell density in peptide gels by ATPLite assay; type: cell-based, murine
# Description: After establishing that the peptides tested were not cytotoxic when placed in culture with L929 fibroblast cells, the next stage was assessing the suitability of the collagen peptide gels for use in supporting cell proliferation.
# [2] = Self-assembly and gel formation in physiological solution / cell media; type: physicochemical; conditions: for peptide concentration for self-supporting gel: physiological conditions
# Description: A large number (dozens) of systematically varied peptides (typically 7-30 residues long) have been studied for soluble polymer and gel formation in cell media. […] Only peptides with a approximate net +2 or −2 charge per peptide at physiological pH=7.5, were able to form soluble polymers and gel cell media (The amount of net charge necessary per peptide to keep its polymers soluble in cell media will vary depending on the overall surface properties and solubility of the peptide tapes it forms). […] These peptides retained a predominantly monomeric state and their solutions in cell media were fluids up to around 40 mg/ml peptide concentration.
# The rationally designed peptide P11-8 (Tables 1A and 1C) was dissolved in 145 mM NaCl, pH˜7.5 aqueous solution (the ionic strength and pH values of the solution were similar to those present in cell culture medium) or it was added directly in cell culture medium.
# The fibrils of P11-8 entwined partly with each other forming a three dimensional network and turned the peptide solution in cell media into a homogeneous self-supporting gel at peptide concentration higher than 15 mg/ml.
# The gel could be temporarily broken by mechanical agitation. The time it took the gel to reform depended on the peptide concentration, ranging from seconds for a 35 mg/ml peptide gel, to hours for a 15 mg/ml peptide gel.
# [3] = test system: tissue surrounding the injection site; parameters: species or system mice; conditions: mouse, in vivo
# Description: Injection of P11-3 and P11-8 peptide solutions in cell media in mice has shown no effect of the presence of the peptide in the tissue surrounding the injection site as judged by histology after two and eight weeks following the peptide injection.
# [4] = Fibril dimensions measured from TEM images; type: physicochemical; conditions: physiological conditions, TEM
# Method: For, electron microscopy, samples were examined using a Phillips CM10 TEM at 80-100 kV accelerating voltage. Gels were diluted to a peptide concentration of 20 μM seconds before application to a glow-discharged, carbon-coated, copper grid followed by coating with uranyl acetate solution (4% w/v in water).
# The dimensions of the fibrils formed by these peptides are given in Table 2, and TEM images from which these measurements were obtained are shown in FIGS. 6A-6D. These dimensions are—the length of a peptide fibril (contour length, L), the length of a peptide fibril before it curves (persistence length, l), the length of a full twist of a peptide fibril (twist pitch, h) the width of a fibril at its widest point (ww) and the width of the fibril at its narrowest point as it twists (wn).
Molecule,Net charge at pH 7.5 [1],"L, fibril contour length [4]","h, twist pitch [4]","l, fibril persistence length [4]","wn, width of the fibril at its narrowest point [4]","ww, width of the fibril at its widest point [4]",other results
QQQFQWQFE^-QQ (QQQFQWQFEQQ; self assembling peptide P11-21),-1,–,–,–,–,–,–
O=C(O)C(F)(F)F [TFA],–,–,–,–,–,–,support of cell growth (L929 fibroblast cells; collagen gels supplemented with 0.9 mg·ml^−1 TFA): supported cell growth with no obvious detrimental effect on the cells; support of cell growth (L929 fibroblast cells; collagen gels supplemented with 5.1 mg·ml^−1 TFA): supported cell growth with no visible detrimental effect on cell growth
QQR^+FQWQFQQQ (QQRFQWQFQQQ; self assembling peptide P11-3),–,–,–,–,–,–,fibrils and gels after sterilisation using an autoclave ([2]; cell media): reform after sterilisation using an autoclave; effect on tissue surrounding the injection site by histology [3]: no effect
QQE^-FE^-WE^-FE^±QQ (QQEFEWEFEQQ; self assembling peptide P11-23),-4,–,–,–,–,–,–
"CC(=O)N[C@@H](CO)C(=O)N[C@@H](CO)C(=O)N[C@@H](CCCNC(=N)N)C(=O)N[C@@H](Cc1ccccc1)C(=O)N[C@@H](CCCN)C(=O)N[C@@H](Cc1c[nH]c2ccccc12)C(=O)N[C@@H](CCCN)C(=O)N[C@@H](Cc1ccccc1)C(=O)N[C@@H](CCC(=O)O)C(=O)N[C@@H](CO)C(=O)N[C@@H](CO)C(N)=O [Peptide P11-12, CH3CO-S-S-R-F-O-W-O-F-E-S-S-NH2] (Ac-SSRF[Orn]W[Orn]FESS-NH2)",+2,1.3-5 μm,139-220 nm,0.4-1.2 μm,5-7 nm,11-16 nm,support of cell growth (L929 fibroblast cells; L929 cells in peptide gels): unsuccessful in supporting cell growth
"CC(=O)N[C@@H](CO)C(=O)N[C@@H](CO)C(=O)N[C@@H](CCCNC(=N)N)C(=O)N[C@@H](Cc1ccccc1)C(=O)N[C@@H](CCC(=O)O)C(=O)N[C@@H](Cc1c[nH]c2ccccc12)C(=O)N[C@@H](CCC(=O)O)C(=O)N[C@@H](Cc1ccccc1)C(=O)N[C@@H](CCC(=O)O)C(=O)N[C@@H](CO)C(=O)N[C@@H](CO)C(N)=O [Peptide P11-9, CH3CO-S-S-R-F-E-W-E-F-E-S-S-NH2] (Ac-SSRFEWEFESS-NH2)",−2,1.1-5 μm,118-236 nm,0.4-1.3 μm,3.5-7 nm,7-12 nm,support of cell growth (L929 fibroblast cells; L929 cells in peptide gels): unsuccessful in supporting cell growth
"CC(=O)N[C@@H](CCC(N)=O)C(=O)N[C@@H](CCC(N)=O)C(=O)N[C@@H](CCCNC(=N)N)C(=O)N[C@@H](CCC(N)=O)C(=O)N[C@@H](CCC(=O)O)C(=O)N[C@@H](CCC(N)=O)C(=O)N[C@@H](CCC(=O)O)C(=O)N[C@@H](CCC(N)=O)C(=O)N[C@@H](CCC(=O)O)C(=O)N[C@@H](CCC(N)=O)C(=O)N[C@@H](CCC(N)=O)C(N)=O [Peptide P11-20, CH3CO-Q-Q-R-Q-E-Q-E-Q-E-Q-Q-NH2] (Ac-QQRQEQEQEQQ-NH2)",−2,0.9-2.8 μm,202-363 nm,0.4-1.5 μm,8-15 nm,14-20 nm,peptide concentration for self-supporting gel [2]: > 20 mg/mL; support of cell growth (L929 fibroblast cells; L929 cells in peptide gels): supported cell growth reasonably well; macroscopic appearance of gel (L929 fibroblast cells; at end of cell culture experiment): some signs of macroscopic degradation
QQQFE^-WE^-FE^±QQ (QQQFEWEFEQQ; self assembling peptide P11-22),-3,–,–,–,–,–,–
CH3CO-E-Q-E-F-E-W-E-F-E-Q-E-HN2 (Ac-EQEFEWEFEQE-NH2) [Peptide P11-13],-6,–,–,–,–,–,–
"CC(=O)N[C@@H](CCC(N)=O)C(=O)N[C@@H](CCC(N)=O)C(=O)N[C@@H](CCCNC(=N)N)C(=O)N[C@@H](CCC(N)=O)C(=O)N[C@@H](CCCN)C(=O)N[C@@H](CCC(N)=O)C(=O)N[C@@H](CCCN)C(=O)N[C@@H](CCC(N)=O)C(=O)N[C@@H](CCC(=O)O)C(=O)N[C@@H](CCC(N)=O)C(=O)N[C@@H](CCC(N)=O)C(N)=O [Peptide P11-19, CH3CO-Q-Q-R-Q-O-Q-O-Q-E-Q-Q-NH2] (Ac-QQRQ[Orn]Q[Orn]QEQQ-NH2)",+2,1.5-3 μm,206-356 nm,0.5-1 μm,7-13 nm,15-22 nm,"peptide concentration for self-supporting gel [2]: 60 mg/mL; self-assembly / gelation at 30 mg·ml^−1 ([2]; physiological solution, 30 mg·ml^−1): does not self assemble; also recorded: did not gel"
"CC(=O)N[C@H](C(=O)N[C@H](C(=O)N[C@@H](CCCNC(=N)N)C(=O)N[C@@H](Cc1ccccc1)C(=O)N[C@@H](CCCN)C(=O)N[C@@H](Cc1c[nH]c2ccccc12)C(=O)N[C@@H](CCCN)C(=O)N[C@@H](Cc1ccccc1)C(=O)N[C@@H](CCC(=O)O)C(=O)N[C@H](C(=O)N[C@H](C(N)=O)[C@@H](C)O)[C@@H](C)O)[C@@H](C)O)[C@@H](C)O [Peptide P11-18, CH3CO-T-T-R-F-O-W-O-F-E-T-T-NH2] (Ac-TTRF[Orn]W[Orn]FETT-NH2)",+2,1.4-4.2 μm,142-236 nm,0.5-1.7 μm,7-11 nm,11-21 nm,support of cell growth (L929 fibroblast cells; L929 cells in peptide gels): unsuccessful in supporting cell growth
CH3CO-Q-Q-O-F-O-W-O-F-O-Q-Q-NH2 (Ac-QQ[Orn]F[Orn]W[Orn]F[Orn]QQ-NH2; SMILES CC(=O)N[C@@H](CCC(N)=O)C(=O)N[C@@H](CCC(N)=O)C(=O)N[C@@H](CCCN)C(=O)N[C@@H](Cc1ccccc1)C(=O)N[C@@H](CCCN)C(=O)N[C@@H](Cc1c[nH]c2ccccc12)C(=O)N[C@@H](CCCN)C(=O)N[C@@H](Cc1ccccc1)C(=O)N[C@@H](CCCN)C(=O)N[C@@H](CCC(N)=O)C(=O)N[C@@H](CCC(N)=O)C(N)=O) [Peptide P11-14],+4,–,–,–,–,–,–
"CC(=O)N[C@H](C(=O)N[C@H](C(=O)N[C@@H](CCCNC(=N)N)C(=O)N[C@@H](Cc1ccccc1)C(=O)N[C@@H](CCC(=O)O)C(=O)N[C@@H](Cc1c[nH]c2ccccc12)C(=O)N[C@@H](CCC(=O)O)C(=O)N[C@@H](Cc1ccccc1)C(=O)N[C@@H](CCC(=O)O)C(=O)N[C@H](C(=O)N[C@H](C(N)=O)[C@@H](C)O)[C@@H](C)O)[C@@H](C)O)[C@@H](C)O [Peptide P11-17, CH3CO-T-T-R-F-E-W-E-F-E-T-T-NH2] (Ac-TTRFEWEFETT-NH2)",−2,1.3-4.5 μm,150-236 nm,0.3-1.7 μm,5-10 nm,10-16 nm,–
CH3CO-Q-Q-R-F-E-W-E-F-E-Q-Q-NH2 (Ac-QQRFEWEFEQQ-NH2) [Peptide P11-4],−2,1.2-7 μm,132-360 nm,0.7-1.4 μm,5.5-8 nm,8-14 nm,–
"QQO^+FO^+WO^+FQQQ (QQ[Orn]F[Orn]W[Orn]FQQQ; not fully specified (N-terminus, C-terminus); printed as QQO+FO+WO+FQQQ) [Peptide P11-5]",+3,–,–,–,–,–,–
